Converted amounts (≈) assume the structure as drawn. The source made the active and inactive calls. No cut-off for these calls is given here.
What was measured:
[1] = Cytotoxicity against human U937 cells assessed as decrease in cell number after 24 hrs by MTT assay; assay type: functional, cell-based; conditions: U-937, 24 h
Klebsiella pneumoniae [2] = test: Antibacterial activity against Klebsiella pneumoniae assessed as growth inhibition at 0.5 mg/ml after 24 hrs by well diffusion method; assay type: functional; conditions: read-out: DIZ
Micrococcus luteus [3] = test: Antibacterial activity against Micrococcus luteus assessed as growth inhibition at 0.5 mg/ml after 24 hrs by well diffusion method; assay type: functional; conditions: read-out: DIZ
Bacillus subtilis [4] = test: Antibacterial activity against Bacillus subtilis assessed as compound concentration required to complete growth inhibition at 8 hrs by tube dilution method; assay type: functional
COLO 205 [5] = test: Cytotoxicity against human COLO205 cells assessed as decrease in cell number after 24 hrs by MTT assay; assay type: functional, cell-based; conditions: COLO 205, 24 h
Escherichia coli [6] = test: Antibacterial activity against Escherichia coli assessed as compound concentration required to complete growth inhibition at 8 hrs by tube dilution method; assay type: functional
Aspergillus niger = test: Antifungal activity against Aspergillus niger assessed as growth inhibition at 0.5 mg/ml after 48 hrs by well diffusion method; assay type: functional, organism-based
Aspergillus fumigatus = test: Antifungal activity against Aspergillus fumigatus assessed as growth inhibition at 0.5 mg/ml after 48 hrs by well diffusion method; assay type: functional, organism-based
THP-1 = test: Cytotoxicity against human THP1 cells assessed as decrease in cell number after 24 hrs by MTT assay; assay type: functional, cell-based; conditions: THP-1, 24 h
[7] = Cytotoxicity against mouse B16F10 cells assessed as decrease in cell number after 24 hrs by MTT assay; assay type: functional, cell-based; conditions: B16-F10, 24 h
Aspergillus terreus = test: Antifungal activity against Aspergillus terreus assessed as growth inhibition at 0.5 mg/ml after 48 hrs by well diffusion method; assay type: functional, organism-based
Micrococcus luteus [8] = test: Antibacterial activity against Micrococcus luteus assessed as compound concentration required to complete growth inhibition at 8 hrs by tube dilution method; assay type: functional
[9] = Cytotoxicity against human HL60 cells assessed as decrease in cell number after 24 hrs by MTT assay; assay type: functional, cell-based; conditions: HL-60, 24 h
Bacillus subtilis [10] = test: Antibacterial activity against Bacillus subtilis assessed as growth inhibition at 0.5 mg/ml after 24 hrs by well diffusion method; assay type: functional; conditions: read-out: DIZ
Klebsiella pneumoniae [11] = test: Antibacterial activity against Klebsiella pneumoniae assessed as compound concentration required to complete growth inhibition at 8 hrs by tube dilution method; assay type: functional
Escherichia coli [12] = test: Antibacterial activity against Escherichia coli assessed as growth inhibition at 0.5 mg/ml after 24 hrs by well diffusion method; assay type: functional; conditions: read-out: DIZ
HL-60 = test: Cytotoxicity against human HL60 cells assessed as growth inhibition at 200 ug/ml after 24 hrs by MTT assay; assay type: functional, cell-based
COLO 205 [13] = test: Cytotoxicity against human COLO205 cells assessed as growth inhibition at 200 ug/ml after 24 hrs by MTT assay; assay type: functional, cell-based

Row | MIC (Bacillus subtilis [4]) [µg/mL] | MIC (Escherichia coli [6]) [µg/mL] | MIC (Micrococcus luteus [8]) [µg/mL] | MIC (Klebsiella pneumoniae [11]) [µg/mL] | SMILES | IC50 [1] [µg/mL] | zone of inhibition at 500 µg/mL (Klebsiella pneumoniae [2]) [mm] | zone of inhibition at 500 µg/mL (Micrococcus luteus [3]) [mm] | IC50 (COLO 205 [5]) [µg/mL] | zone of inhibition (Aspergillus niger) [mm] | zone of inhibition (Aspergillus fumigatus) [mm] | IC50 (THP-1) [µg/mL] | IC50 [7] [µg/mL] | zone of inhibition (Aspergillus terreus) [mm] | IC50 [9] [µg/mL] | zone of inhibition at 500 µg/mL (Bacillus subtilis [10]) [mm] | zone of inhibition at 500 µg/mL (Escherichia coli [12]) [mm] | growth inhibition (GI) (HL-60) | growth inhibition (GI) (COLO 205 [13])
1 | 50 (≈ 166 µM) | 50 (≈ 166 µM) | 50 (≈ 166 µM) | 50 (≈ 166 µM) | C=C(C(=O)/C=C/C(C)=O)[C@@H]1CC(=O)[C@@]2(C)[C@@H]1[C@@H]1[C@H](C)CC[C@@H]12 | 7.52 (≈ 25 µM) | 11.3 | 0 | 32 (≈ 107 µM) | 19.3 | 22 | 18.1 (≈ 60.3 µM) | 3.62 (≈ 12.1 µM) | 19.3 | 48.4 (≈ 161 µM) | 10.3 | 11 | – | –
2 | – | – | – | – | CC(=O)N1CCN(c2ccc(OCC3COC(Cn4ccnc4)(c4ccc(Cl)cc4Cl)O3)cc2)CC1 (configuration not stated) [KETOCONAZOLE] | – | – | – | – | 22.7 | 20.7 | – | – | 20 | – | – | – | – | –
3 | 100 (≈ 216 µM) | 100 (≈ 216 µM) | 100 (≈ 216 µM) | 200 (≈ 432 µM) | C=C(C(/C=C/C(C)(O)COC(C)=O)OC(C)=O)[C@@H]1C[C@@H](OC(C)=O)[C@@]2(C)[C@@H]1[C@@H]1[C@H](C)CC[C@@H]12 (some centres not stated) | 38.4 (≈ 83.1 µM) | 16.3 | 17.3 | – | – | – | 188 (≈ 407 µM) | 54.1 (≈ 117 µM) | – | – | 18 | 21.3 | inactive | inactive
4 | 400 (≈ 1150 µM) | 200 (≈ 577 µM) | 200 (≈ 577 µM) | 200 (≈ 577 µM) | C=C(CC(C=C(C)C)OC(C)=O)[C@@H]1C[C@@H](O)[C@@]2(C)[C@@H]1[C@@H]1[C@H](C)CC[C@@H]12 (some centres not stated) | 60 (≈ 173 µM) | 11.7 | 10.3 | 87.3 (≈ 252 µM) | – | – | 50.3 (≈ 145 µM) | 73.2 (≈ 211 µM) | – | 198 (≈ 572 µM) | 0 | 10.7 | – | –
5 | 100 (≈ 266 µM) | 100 (≈ 266 µM) | 50 (≈ 133 µM) | 100 (≈ 266 µM) | C=C(C(=O)/C=C/C(C)(O)COC(C)=O)[C@@H]1C[C@@H](O)[C@@]2(C)[C@@H]1[C@@H]1[C@H](C)CC[C@@H]12 (some centres not stated) | 9.58 (≈ 25.4 µM) | 14 | 16.7 | 35.1 (≈ 93.3 µM) | – | – | 15.2 (≈ 40.3 µM) | 3.28 (≈ 8.71 µM) | – | 51.8 (≈ 138 µM) | 15.7 | 17 | – | –
6 | 50 | 50 | 50 | 50 | C=C(C(O)/C=C/C(C)(O)COC(C)=O)[C@@H]1C[C@@H](OC(C)=O)[C@@]2(C)[C@@H]1[C@@H]1[C@H](C)CC[C@@H]12 (mixture of isomers) | 5.6 | 10.7 | 14.7 | 36.1 | – | – | 14.2 | 3.45 | – | 41 | 14.3 | 11.3 | – | –
7 | 100 (≈ 328 µM) | 100 (≈ 328 µM) | 100 (≈ 328 µM) | 50 (≈ 164 µM) | C=C(C[C@@H](O)C=C(C)C)[C@@H]1C[C@@H](O)[C@@]2(C)[C@@H]1[C@@H]1[C@H](C)CC[C@@H]12 | 51.3 (≈ 168 µM) | 16.7 | 14 | 72.2 (≈ 237 µM) | – | – | 53 (≈ 174 µM) | 46.7 (≈ 153 µM) | – | 41.6 (≈ 137 µM) | 13.7 | 12.3 | – | –
8 | – | – | – | – | COc1cc([C@@H]2c3cc4c(cc3[C@@H](O[C@@H]3O[C@@H]5CO[C@@H](C)O[C@H]5[C@H](O)[C@H]3O)[C@H]3COC(=O)[C@H]23)OCO4)cc(OC)c1O [ETOPOSIDE] | 2.27 (≈ 3.86 µM) | – | – | 1.07 (≈ 1.82 µM) | – | – | 5.02 (≈ 8.53 µM) | 4.12 (≈ 7 µM) | – | 2.12 (≈ 3.6 µM) | – | – | – | –

Row | SMILES | MIC (Bacillus subtilis [4]) [µg/mL] | MIC (Escherichia coli [6]) [µg/mL] | MIC (Micrococcus luteus [8]) [µg/mL] | MIC (Klebsiella pneumoniae [11]) [µg/mL] | IC50 [1] [µg/mL] | zone of inhibition at 500 µg/mL (Klebsiella pneumoniae [2]) [mm] | zone of inhibition at 500 µg/mL (Micrococcus luteus [3]) [mm] | IC50 (COLO 205 [5]) [µg/mL] | zone of inhibition (Aspergillus niger) [mm] | zone of inhibition (Aspergillus fumigatus) [mm] | IC50 (THP-1) [µg/mL] | IC50 [7] [µg/mL] | zone of inhibition (Aspergillus terreus) [mm] | IC50 [9] [µg/mL] | zone of inhibition at 500 µg/mL (Bacillus subtilis [10]) [mm] | zone of inhibition at 500 µg/mL (Escherichia coli [12]) [mm] | growth inhibition (GI) (HL-60) | growth inhibition (GI) (COLO 205 [13])
9 | CN[C@@H]1[C@H](O[C@H]2[C@H](O[C@H]3[C@H](O)[C@@H](O)[C@H](N=C(N)N)[C@@H](O)[C@@H]3N=C(N)N)O[C@@H](C)[C@]2(O)C=O)O[C@@H](CO)[C@H](O)[C@H]1O.CN[C@@H]1[C@H](O[C@H]2[C@H](O[C@H]3[C@H](O)[C@@H](O)[C@H](N=C(N)N)[C@@H](O)[C@@H]3N=C(N)N)O[C@@H](C)[C@]2(O)C=O)O[C@@H](CO)[C@H](O)[C@H]1O.O=S(=O)(O)O.O=S(=O)(O)O.O=S(=O)(O)O [STREPTOMYCIN SULFATE] | 6.25 | 6.25 | 6.25 | 6.25 | – | 27.3 | 28.7 | – | – | – | – | – | – | – | 28.7 | 30.3 | – | –

Reference: ChEMBL document CHEMBL3425446, “Isolation, semi-synthesis and bio-evaluation of spatane derivatives from the brown algae Stoechospermum marginatum” (Bioorg Med Chem Lett, 2015)
